Three compounds from patent publication US5627211A, “Cyclohexyl amine derivatives and their use as tachykinin antagonists” (Merck Sharp & Dohme Limited, priority 1992, dated 1997) can be followed below.

The assay addresses human NK1R (Homo sapiens, UniProt P25103). The experiment in a line: human NK1R assay: displacement of radiolabelled substance P binding. On the procedure:
The substance P antagonizing activity of the compounds described herein was evaluated using the human NK1R assay described in published European patent application no. 0 528 495. The method essentially involves determining the concentration of the test compound required to reduce by 50% the amount of radiolabelled substance P binding to human NK1R, thereby affording an IC50 value for the test compound.

Setting [1] is: radiolabelled substance P, assay as in EP 0 528 495, read-out: IC50 (concentration of the test compound required to reduce by 50% the amount of radiolabelled substance P binding to human NK1R).

The structures appear in SMILES notation. Like-named read-outs stand apart in the source and are kept apart here.

Chain of human NK1R (P25103 whole entry): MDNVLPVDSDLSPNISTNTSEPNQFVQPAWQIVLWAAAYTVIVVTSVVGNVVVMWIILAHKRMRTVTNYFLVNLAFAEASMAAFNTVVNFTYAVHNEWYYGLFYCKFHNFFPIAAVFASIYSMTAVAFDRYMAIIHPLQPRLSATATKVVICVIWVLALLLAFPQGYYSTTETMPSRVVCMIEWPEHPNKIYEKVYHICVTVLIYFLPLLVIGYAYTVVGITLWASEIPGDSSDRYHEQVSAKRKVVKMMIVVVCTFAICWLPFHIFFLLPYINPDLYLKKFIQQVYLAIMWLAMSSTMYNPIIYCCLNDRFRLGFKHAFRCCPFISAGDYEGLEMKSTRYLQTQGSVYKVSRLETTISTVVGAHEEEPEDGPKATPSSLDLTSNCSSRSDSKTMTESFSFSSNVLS

As to `NC(=O)CNC1(c2ccccc2)CCCCC1OCc1cc(C(F)(F)F)cc(C(F)(F)F)c1` (stereo not drawn) [Example 6, 1-(Bis-3,5-trifluoromethylbenzyoxy)-2-(carboxamido)methylamino-2-phenylcyclohexane], the IC50 under setting [1] was found to be 100 nM.
On to `Cc1cc(C)cc(COC2CCCCC2(N)c2ccccc2)c1` (stereo not drawn) [Example 1, 1-(3,5-Dimethylbenzyloxy)-2-amino-2-phenylcyclohexane], for which the IC50 came out at 100 nM.
As to `NC1(c2ccccc2)CCCCC1OCc1cc(C(F)(F)F)cc(C(F)(F)F)c1` (stereo not drawn) [Example 5, 1-(Bis-3,5-trifluoromethylbenzyoxy)-2-amino-2-phenylcyclohexane], the IC50 under setting [1] turned out to be 350 nM.
